Where two headings read alike, the source gives them in different places.

Consider ten compounds from PMC10761680 (Scientific Reports, 2024).

For series [1], the target named is human soluble ENPP1. More on the design: method as in earlier work. The settings on record: substrate ATP, Colorimetry (Molybdenum-phosphate complex), pH 9.0; cited from earlier work.
The target in series [2] is human soluble ENPP1. The note with it: substrate p-Nph-5′-TMP, Colorimetry (p-nitrophenol), cited from earlier work; for Ki: pH 9.0; for IC50: read-out: IC50 (shown in the Ki column).
For series [3], the target named is human soluble ENPP1. The settings on record: substrate ATP, Capillary Electrophoresis, pH 9.0; cited from earlier work.
Series [4] has as its target human soluble ENPP1. The settings on record: substrate cGAMP, Bioluminescence (Enzyme-coupling), cited from earlier work.
Series [5] addresses T1, human ENPP1 (Homo sapiens, UniProt P22413).
T1 sequence (P22413 98-925 limits assumed): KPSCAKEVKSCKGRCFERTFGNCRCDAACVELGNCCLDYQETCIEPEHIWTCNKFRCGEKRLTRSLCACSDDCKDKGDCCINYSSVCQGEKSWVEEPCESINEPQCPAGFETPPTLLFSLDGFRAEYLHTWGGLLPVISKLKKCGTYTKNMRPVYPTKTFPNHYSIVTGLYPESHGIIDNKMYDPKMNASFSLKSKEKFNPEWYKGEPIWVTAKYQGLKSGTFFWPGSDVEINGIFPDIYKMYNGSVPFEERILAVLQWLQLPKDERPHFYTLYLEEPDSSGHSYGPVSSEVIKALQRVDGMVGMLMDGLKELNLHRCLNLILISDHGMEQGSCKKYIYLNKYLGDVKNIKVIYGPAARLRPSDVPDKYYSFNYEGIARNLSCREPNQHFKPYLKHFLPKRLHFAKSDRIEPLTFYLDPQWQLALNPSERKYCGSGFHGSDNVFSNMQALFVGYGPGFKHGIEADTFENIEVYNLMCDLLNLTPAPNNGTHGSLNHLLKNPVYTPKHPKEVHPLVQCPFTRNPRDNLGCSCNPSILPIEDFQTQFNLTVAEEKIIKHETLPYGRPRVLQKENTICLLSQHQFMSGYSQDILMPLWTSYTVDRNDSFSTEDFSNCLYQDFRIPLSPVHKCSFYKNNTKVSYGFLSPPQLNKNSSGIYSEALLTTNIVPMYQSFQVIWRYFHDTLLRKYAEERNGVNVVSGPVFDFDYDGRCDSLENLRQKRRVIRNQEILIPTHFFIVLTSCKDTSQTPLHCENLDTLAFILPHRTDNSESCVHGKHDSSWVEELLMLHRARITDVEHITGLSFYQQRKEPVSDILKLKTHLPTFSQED
In words: Fluorescent screening of ENPP1 inhibitors using ATP as substrate and Kyoto Green as reporter. The format is biochemical. More on the design: purchased R&D systems (Minneapolis, USA). The note with it: 2 μM ATP, 11.5 nM ENPP1, 20 min, pH 7.4; for ENPP1 inhibition in Kyoto Green screening (in words): 10 μM or maximum soluble concentration.

The target of series [6] is T1, human ENPP1. In words: biochemical.
For series [7], the target named is T1, human ENPP1. In words: Colorimetric UV-visible assay of ENPP1 using p-Nph-5′-TMP as chromogenic substrate. The format is biochemical. Set-up: purchased R&D systems (Minneapolis, USA).
The nature of series [8]: Solubility in water (solution preparation). The format is physicochemical.
The target of series [9] is T1, human ENPP1. In words: Fluorescent determination of IC50/Ki using Kyoto Green (ATP hydrolysis).
Series [10] is described as follows: pH-dependent stability of quercetin in aqueous solution (UV-visible spectrum). The format is physicochemical. The note with it: 50 mM HEPES buffer (pH 7.4), 60 min, 7 µM. As for the experimental part: page 8: 0 → 60 min 0 → 60 min Figure S7.pH -dependent stability of quercetin in aqueous solution. Time course of UV- visible spectrum (JASCO […], Japan) of quercetin ( 7 μ M) in50 m M HEPES buffer (pH 7.4) (above) or 50 mM borate buffer (pH 9.0) (below) . Inset: Absorbance at λ ma x ( 403 nm). Ratio of ethanol : buffer = 1 : 10 v/v. The buffer contain ed 10 mM NaCl, 1 mM MgCl 2, and 0.02 mM Zn(NO3)2. Measurements were performed at 25± 2 °C. S8 […]

For series [11], the target named is T1, human ENPP1. The series is described as follows: Bioluminescent assay of ENPP1 using luciferin/luciferase ATP assay kit.
The target of series [12] is T1, human ENPP1. Set-up: purchased R&D systems (Minneapolis, USA); method as in PMID 28011303. The settings on record: substrate of human ENPP1, pH 9.0; cited from earlier work.
Where [13] appears, read: Kyoto Green fluorescence method, ATP, pH 7.4.

`Cc1nc2ncnn2c(N(C)C)c1Cc1cccc(N)c1` [Compound 1]: the Ki in [1] is 2000 nM; in [2] it was 480 nM.

Consider `COc1ccc(NC(=O)CSc2nc3c(N)ncnc3[nH]2)cc1OC` [Compound 3], for which the inhibition constant Ki in [3] was 18 µM; in series [2], 5 nM.

`COc1cccc2c(NCc3ccc(P(=O)(O)O)cc3)c(C#N)cnc12` [Compound 5]: the Ki in series [4] (pH 7.4) was below 2 nM.

On to `CN1Cc2c(ncnc2N2CCC(C)(CNS(N)(=O)=O)CC2)NC1=O` [Compound 6], for which the half-inhibitory concentration (IC50) in series [4] (pH 8.5, read-out: IC50 (shown in the Ki column)) is 3.7 nM.

As for `O=c1c(O)c(-c2ccc(O)cc2)oc2cc(O)cc(O)c12` [Kaempferol, 3, 4′,5,7 -tetrahydroxyflavone], the “ENPP1 inhibition in Kyoto Green screening (in words)” value in series [5] is on record as “ineffective as inhibitors”.

`O=c1c(O)c(-c2ccc(O)cc2O)oc2cc(O)cc(O)c12` [Morin, 3,5,7,2′,4′-pentahydroxyflavone]: the “ENPP1 inhibition in Kyoto Green screening (in words)” value in series [5] was “ineffective as inhibitors”.

As to `O=c1c(O)c(-c2cc(O)c(O)c(O)c2)oc2cc(O)cc(O)c12` [Myricetin, 3,5,7,3′,4′,5′-hexahydroxyflavone], the half-maximal inhibitory concentration (IC50) in series [2] (pH 7.4) was 432 nM; in series [2] (pH 9.5) it was 414 nM.

On to `O=c1c(O)c(-c2ccc(O)c(O)c2)oc2cc(O)cc(O)c12` [Quercetin, 3,5,7,3′,4′-pentahydroxyflavone], for which the inhibitory constant (Ki) in series [6] is around 4 nM; in [7] (substrate p-Nph-5′-TMP, Colorimetry (p-nitrophenol), pH 7.4, Cheng-Prusoff, KM 222 µM) it was 159 ± 73 nM. For the same compound, the “ENPP1 inhibition at pH 9.0 (in words)” value in series [7] (700 nM quercetin, 0.1 mM p-Nph-5′-TMP, 50 mM borate buffer pH 9.0, 6.5 nM ENPP1, time course 60 min) is listed as “capable of inhibiting ENPP1 at pH 9.0, but this effect was observed only for the first 10 min”. In addition, in series [7] (p-Nph-5′-TMP versus ATP as substrate), the “Ki by colorimetric method relative to Ki by Kyoto Green and commercial ATP assays” value is given as “approximately 40 fold”. For the same compound, the “reduction of Kyoto Green fluorescence change (F/F0-1) compared to the control group without an inhibitor” value in series [5] (10 μM compound) is listed as “over 90%”. In addition, the solubility in water result in [8] is “poor solubility in water”. The IC50 came out at 4.5 ± 0.9 nM in series [9] and 5.5 ± 0.6 nM in series [11]. Further, the “inhibitory efficiency of quercetin relative to myricetin” value in series [9] (setting [13]) is listed as ~ 8 folds. In addition, the “inhibitory efficiency of quercetin relative to suramin” value in series [9] (setting [13]) was ~ 188 folds. For the same compound, the stability in buffer result in series [10] is “highly stable”.

As for `O=c1c(O[C@@H]2O[C@H](CO)[C@@H](O)[C@H](O)[C@H]2O)c(-c2ccc(O)c(O)c2)oc2cc(O)cc(O)c12` [Quercetin-3-glucoside, quercetin-3-glucoside], the “ENPP1 inhibition in Kyoto Green screening (in words)” value in series [5] is recorded as “did not inhibit ENPP1”; in [5] (listed as quercetin glucoside), “ineffective as inhibitors”.

Take `Cc1cn([C@H]2C[C@H](O)[C@@H](COP(=O)(O)Oc3ccc([N+](=O)[O-])cc3)O2)c(=O)[nH]c1=O` [p-Nph-5′-TMP, p-nitrophenyl 5′-thymidine monophosphate]: the Michaelis constant (Km) in series [12] is 222 µM.

As a reminder, the Ki is the dissociation constant of the complex between target and ligand, obtained from inhibition or displacement. A word on the IC50: it is the point on the concentration scale where inhibition reaches its midpoint. The term Km denotes the concentration of substrate that gives half-maximal velocity.
